Source: US11420944B2, “Voltage-dependent t-type calcium channel blocker” (Nippon Chemiphar Co., Ltd., priority 2016, dated 2022)
pIC50: −log10 of the molar value. Like-named read-outs stand apart in the source and are kept apart here.

Biological target: T1, human Cav3.2 channels (Homo sapiens, UniProt O95180)
T1 construct: expressed in transfected cells; host or cells: HEK293 cells (ATCC No. CRL-1573), plasmid pcDNA3.1(+)
Experiment: Intracellular calcium concentration measurement (Fluo-4 AM) in stable cells expressing human Cav3.2 channels, buffer A / buffer B
Assay type: cell-based
From the text: Construction of Stable Cells Expressing Human Cav3.2 Channels
(1) A sequence produced by incorporating HindIII site and kozak sequence (GCCACC) into the 5′-terminal side of human Cav3.2 channel ORF (Open Reading Frame) gene and incorporating Kpnl site into the 3′-terminal side was incorporated into pcDNA3.1(+) (Thermo-Fisher Scientific, Inc., #V790-20), and the plasmid was transfected into HEK293 cells (ATCC No. CRL-1573) according to the protocol of FuGENE (registered trademark) HD Transfection Reagent (PROMEGA #E2311).
(2) Method for Measuring Intracellular Calcium Concentration
In the present measurement system, buffer A and buffer B having different potassium ion concentrations were used in order to evaluate the state-dependent Cav3.2 inhibitory action of a test compound.
Stable cell line expressing human Cav3.2 channels, which had been produced in (1), was seeded in a 96-well plate using DMEM medium including 10% FBS, and the cells were cultured for 48 hours under the conditions of 37° C. and 5% CO2. Subsequently, the medium was removed, and various wells that had been washed with a base buffer were treated with 80 μL of a fluorescent dye solution containing a mixed liquid of 22 μg of calcium fluorescence indicator Fluo-4 AM (Dojindo Laboratories Co., Ltd., #F311), 20 μL of DMSO, […] of 10% Pluronic F-127 (Thermo-Fisher Scientific, Inc., #P6866), and 4 mL of a base buffer. The cells were left to stand for 45 minutes at room temperature in the dark, and then the cells were washed with buffer A or buffer B. Solutions having various test compound concentrations and respectively containing buffer A or buffer B were added to the respective wells, the respective solutions containing DMSO at the same final concentration as that of the test compound as negative control, or containing the test compound dissolved in 100% DMSO at a final concentration of 0.1%. The cells were left to stand for another 15 minutes at room temperature in the dark, and the cells were analyzed using the following method using a microplate reader, EnVision (PerkinElmer, Inc.). First, the background fluorescence for each well was measured, subsequently an ionophore was added to the well, and the fluorescence of the baseline was measured. Subsequently, buffer A or buffer B containing added KCl at a concentration of 83.8 mM or 91.8 mM was added to each well, and an increase in fluorescence caused by a calcium influx generated by that stimulus was measured for 10 seconds. The percentage inhibition was calculated from the maximum fluorescence increment from the baseline, and the logarithmic value of the test compound concentration and the inhibitory activity were plotted to calculate the IC50 value. The analysis was carried out by measuring the fluorescence at 510 nm emitted when the cells were irradiated with exciting light at 485 nm.
Base buffer: 140 mM NaCl, 5 mM KCl, 1 mM MgCl2, 0.5 mM CaCl2, 10 mM Glucose, and 10 mM HEPES, pH 7.3
Buffer A: Equilibrium potential of potassium: −92 mV

[1] = Tables 2 to 6, buffer A, equilibrium potential of potassium −92 mV, read-out: Inhibitory action of buffer A (inactivated state)
[2] = Table 1, buffer A, equilibrium potential of potassium −92 mV, read-out: Inhibitory action of buffer A (inactivated state)
[3] = Table 1, buffer B, equilibrium potential of potassium −110 mV, read-out: Inhibitory action of buffer B (resting state or closed state)

T1 sequence (O95180 whole entry): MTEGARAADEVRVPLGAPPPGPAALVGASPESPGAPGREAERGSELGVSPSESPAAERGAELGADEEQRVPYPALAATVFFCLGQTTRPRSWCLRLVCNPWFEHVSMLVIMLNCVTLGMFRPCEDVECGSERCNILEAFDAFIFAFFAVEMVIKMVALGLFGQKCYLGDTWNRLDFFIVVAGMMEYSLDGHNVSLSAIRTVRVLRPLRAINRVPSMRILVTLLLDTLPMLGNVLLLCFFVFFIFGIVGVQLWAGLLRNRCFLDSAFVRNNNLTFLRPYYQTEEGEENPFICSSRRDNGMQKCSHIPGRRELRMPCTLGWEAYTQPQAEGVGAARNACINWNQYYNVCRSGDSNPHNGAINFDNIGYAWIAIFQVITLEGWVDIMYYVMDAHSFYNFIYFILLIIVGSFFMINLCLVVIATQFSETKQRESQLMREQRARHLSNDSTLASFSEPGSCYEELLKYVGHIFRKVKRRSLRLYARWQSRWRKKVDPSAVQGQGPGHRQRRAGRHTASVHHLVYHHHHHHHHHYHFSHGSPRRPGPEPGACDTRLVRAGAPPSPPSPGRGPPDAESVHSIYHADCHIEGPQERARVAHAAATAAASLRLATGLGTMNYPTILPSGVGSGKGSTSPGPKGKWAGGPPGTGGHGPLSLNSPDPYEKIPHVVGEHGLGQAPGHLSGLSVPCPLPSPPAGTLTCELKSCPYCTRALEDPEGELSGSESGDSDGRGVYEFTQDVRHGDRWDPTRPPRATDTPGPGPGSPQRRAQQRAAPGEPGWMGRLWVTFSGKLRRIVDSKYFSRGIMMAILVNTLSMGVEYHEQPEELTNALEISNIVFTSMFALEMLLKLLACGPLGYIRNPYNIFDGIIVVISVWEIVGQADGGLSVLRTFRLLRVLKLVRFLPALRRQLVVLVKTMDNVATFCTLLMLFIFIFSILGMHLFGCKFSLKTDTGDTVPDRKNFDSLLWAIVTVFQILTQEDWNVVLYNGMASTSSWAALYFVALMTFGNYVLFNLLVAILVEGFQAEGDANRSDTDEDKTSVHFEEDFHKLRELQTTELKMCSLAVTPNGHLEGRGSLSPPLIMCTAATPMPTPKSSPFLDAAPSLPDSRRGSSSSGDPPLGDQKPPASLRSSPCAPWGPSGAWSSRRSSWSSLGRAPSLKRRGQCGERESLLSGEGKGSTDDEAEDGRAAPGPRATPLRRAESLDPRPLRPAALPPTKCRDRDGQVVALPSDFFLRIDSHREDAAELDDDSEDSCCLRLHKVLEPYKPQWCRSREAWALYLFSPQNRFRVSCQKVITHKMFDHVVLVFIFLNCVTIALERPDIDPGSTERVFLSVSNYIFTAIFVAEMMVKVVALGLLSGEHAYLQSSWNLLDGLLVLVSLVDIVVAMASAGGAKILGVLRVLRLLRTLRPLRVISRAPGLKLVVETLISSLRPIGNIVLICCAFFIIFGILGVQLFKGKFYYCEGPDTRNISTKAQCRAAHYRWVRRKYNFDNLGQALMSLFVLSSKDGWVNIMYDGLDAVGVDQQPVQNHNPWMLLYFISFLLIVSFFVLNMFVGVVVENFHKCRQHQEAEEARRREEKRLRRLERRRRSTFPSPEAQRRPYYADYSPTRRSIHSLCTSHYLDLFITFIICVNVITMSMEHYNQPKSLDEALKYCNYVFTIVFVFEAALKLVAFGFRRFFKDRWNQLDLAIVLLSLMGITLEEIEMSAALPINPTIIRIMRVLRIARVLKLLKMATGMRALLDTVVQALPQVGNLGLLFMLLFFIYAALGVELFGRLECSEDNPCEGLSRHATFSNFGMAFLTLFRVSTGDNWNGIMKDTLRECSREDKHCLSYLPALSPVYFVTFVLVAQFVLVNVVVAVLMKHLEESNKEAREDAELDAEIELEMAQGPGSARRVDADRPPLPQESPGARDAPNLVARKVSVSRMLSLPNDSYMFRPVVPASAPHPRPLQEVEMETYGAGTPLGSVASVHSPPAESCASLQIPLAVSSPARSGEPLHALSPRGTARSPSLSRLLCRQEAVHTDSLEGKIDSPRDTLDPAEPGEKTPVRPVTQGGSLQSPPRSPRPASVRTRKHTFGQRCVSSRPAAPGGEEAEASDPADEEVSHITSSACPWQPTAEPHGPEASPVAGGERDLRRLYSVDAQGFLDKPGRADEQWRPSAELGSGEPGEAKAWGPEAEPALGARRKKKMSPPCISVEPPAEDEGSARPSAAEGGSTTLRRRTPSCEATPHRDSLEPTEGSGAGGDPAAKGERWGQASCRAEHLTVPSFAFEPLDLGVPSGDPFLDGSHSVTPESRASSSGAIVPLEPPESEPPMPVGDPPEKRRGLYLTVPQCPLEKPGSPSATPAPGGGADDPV

pIC50 [1]	pIC50 [2]	pIC50 [3]	Compound
5.00 to 6.00			CC(NC(=O)[C@H]1C[C@@H]1c1nc2ccccc2[nH]1)c1nc2ccc(F)cc2[nH]1 (single isomer, unassigned) [Example 127B]
< 5.00			C[C@@H](NC(=O)C1CC1c1nc2ccccc2o1)c1ccc(OCC(F)(F)F)s1 (single isomer, unassigned) [Example 40B]
< 5.00			C[C@@H](NC(=O)C1CC1c1cn(C)c2ccccc12)c1ccc(OCC(F)(F)F)s1 (single isomer, unassigned) [Example 29A]
< 5.00			C[C@@H](NC(=O)C1CC1c1cc(F)cc(F)c1)c1ccc(OCC(F)(F)F)s1 (single isomer, unassigned) [Example 19A]
≥ 7.00			C[C@@H](NC(=O)C1CC1c1nc2c(Cl)cccc2[nH]1)c1ccc(OCC(F)(F)F)s1 (single isomer, unassigned) [Example 122A]
	< 5.00		C[C@@H](NC(=O)C1CC1c1nc2ccccc2[nH]1)c1ncc(Br)s1 (single isomer, unassigned) [Example 11B]
	5.00 to 6.00	< 5.00	C[C@@H](NC(=O)C1CC1c1nc2ccccc2[nH]1)c1ncc(Br)s1 (single isomer, unassigned) [Example 11A]
6.00 to 7.00			C[C@@H](NC(=O)C1CC1c1nc2cc(Cl)ccc2[nH]1)c1ccc(OCC(F)(F)F)s1 (single isomer, unassigned) [Example 53B]
6.00 to 7.00			C[C@@H](NC(=O)C1CC1c1nc2cc(Cl)ccc2o1)c1cc2cc(F)ccc2o1 (single isomer, unassigned) [Example 108A]
6.00 to 7.00			COc1ccc2[nH]c(C3CC3C(=O)N[C@H](C)c3ccc(OCC(F)(F)F)s3)nc2c1 (single isomer, unassigned) [Example 71B]
5.00 to 6.00			C[C@@H](NC(=O)C1CC1c1nc2cc(Cl)cnc2[nH]1)c1ccc(OCC(F)(F)F)s1 (single isomer, unassigned) [Example 85A]
6.00 to 7.00			C[C@@H](NC(=O)C1CC1c1nc2cc(Cl)ccc2[nH]1)c1nc(C2CC2)no1 (single isomer, unassigned) [Example 77A]
5.00 to 6.00			C[C@@H](NC(=O)C1CC1c1nc2cc(Cl)ccc2[nH]1)c1nc(C2CC2)no1 (single isomer, unassigned) [Example 77B]
6.00 to 7.00			C[C@@H](NC(=O)C1CC1c1c[nH]c2ccccc12)c1cc2cc(F)ccc2o1 (single isomer, unassigned) [Example 98B]
	5.00 to 6.00	< 5.00	C[C@@H](NC(=O)C1CC1c1nc2ccccc2[nH]1)c1ccc(Br)s1 (single isomer, unassigned) [Example 6B]
< 5.00			C[C@@H](NC(=O)C1CC1c1nc2cc(Cl)cnc2[nH]1)c1ccc(OCC(F)(F)F)s1 (single isomer, unassigned) [Example 85B]
	< 5.00		C[C@@H](NC(=O)C1CC1c1nc2ccccc2[nH]1)c1cnc(OCC(F)(F)F)s1 (single isomer, unassigned) [Example 8B]
≥ 7.00			C[C@@H](NC(=O)C1CC1c1nc2cc(Cl)ccc2[nH]1)c1ccc(OCC(F)(F)F)s1 (single isomer, unassigned) [Example 53A]
	5.00 to 6.00	5.00 to 6.00	C[C@@H](NC(=O)C1CC1c1nc2ccccc2[nH]1)c1ccc(C(F)(F)F)s1 (single isomer, unassigned) [Example 5B]
6.00 to 7.00			C[C@@H](NC(=O)C1CC1c1nc(-c2ccccc2)c[nH]1)c1ccc(OCC(F)(F)F)s1 (single isomer, unassigned) [Example 31B]

The next lines start with the molecule.

Compound	pIC50 [1]	pIC50 [2]	pIC50 [3]
C[C@@H](NC(=O)C1CC1c1cn(C)c2ccccc12)c1cnc(OCC(F)(F)F)s1 (single isomer, unassigned) [Example 48]	≥ 7.00		
C[C@@H](NC(=O)[C@H]1C[C@@H]1c1nc2ccccc2[nH]1)c1cc2ccc(F)cc2s1 [Example 119, (1S,2S)-2-(1H-benzo[d]imidazol-2-yl)-N—((R)-1-(6-fluorobenzo[b]thiophen-2-yl)ethyl)cyclopropane-1-carboxamide]	≥ 7.00		
C[C@@H](NC(=O)C1CC1c1nc2cnccc2[nH]1)c1ccc(OCC(F)(F)F)s1 (mixture of isomers) [Example 28, Trans-2-(1H-imidazo[4,5-c]pyridin-2-yl)-N—((R)-1-(5-(2,2,2-trifluoroethoxy)thiophen-2-yl)ethyl)cyclopropane-1-carboxamide]	< 5.00		
CC(C)[C@H](NC(=O)[C@H]1C[C@@H]1c1nc2ccccc2[nH]1)c1ccc(C(F)(F)F)s1 [Example 115, (1S,2S)-2-(1H-benzo[d]imidazol-2-yl)-N—((S)-2-methyl-1-(5-(trifluoromethyl)thiophen-2-yl)propyl)cyclopropane-1-carboxamide]	6.00 to 7.00		
C[C@@H](NC(=O)[C@H]1C[C@@H]1c1nc2ccccc2[nH]1)c1ccc(C2CC2)o1 [Example 74, (1S,2S)-2-(1H-benzo[d]imidazol-2-yl)-N—((R)-1-(5-cyclopropylfuran-2-yl)ethyl)cyclopropane-1-carboxamide]	6.00 to 7.00		
C[C@@H](NC(=O)[C@@H]1CCN(c2nc3ccccc3s2)C1)c1ccc(OCC(F)(F)F)s1 [Example 13, (R)-1-(benzo[d]thiazol-2-yl)-N—((R)-1-(5-(2,2,2-trifluoroethoxy)thiophen-2-yl)ethyl)pyrrolidine-3-carboxamide]		< 5.00	
O=C(NC1(c2cc3cc(F)ccc3o2)CC1)[C@H]1C[C@@H]1c1nc2ccccc2[nH]1 [Example 128, (1S,2S)-2-(1H-benzo[d]imidazol-2-yl)-N-(1-(5-fluorobenzofuran-2-yl)cyclopropyl)cyclopropane-1-carboxamide]	6.00 to 7.00		
C[C@@H](NC(=O)C1CC1c1ccc2ccccc2n1)c1ccc(Br)s1 (single isomer, unassigned) [Example 45]	6.00 to 7.00		
C[C@@H](NC(=O)C1CC1c1nc2ccccc2[nH]1)c1ccc(OCC(F)(F)F)s1 (single isomer, unassigned) [Example 3B]		5.00 to 6.00	5.00 to 6.00
CC(C)[C@@H](NC(=O)C1CC1c1nc2ccccc2[nH]1)c1ccc(OCC(F)(F)F)s1 (single isomer, unassigned) [Example 44]	≥ 7.00		
C[C@@H](NC(=O)[C@H]1C[C@@H]1c1nc2ccccc2[nH]1)c1ccc2c(c1)OCCO2 [Example 70, (1S,2S)-2-(1H-benzo[d]imidazol-2-yl)-N—((R)-1-(2,3-dihydrobenzo[b][1,4]dioxin-6-yl)ethyl)cyclopropane-1-carboxamide]	5.00 to 6.00		
C[C@@H](NC(=O)[C@H]1C[C@@H]1c1nc2ccccc2[nH]1)c1ccc(C(=O)N(C)C)s1 [Example 84, 5-((R)-1-((1S,2S)-2-(1H-benzo[d]imidazol-2-yl)cyclopropane-1-carboxamido)ethyl)-N,N-dimethylthiophene-2-carboxamide]	5.00 to 6.00		
C[C@@H](NC(=O)[C@@H]1CCN(c2ccc(C(F)(F)F)cn2)C1)c1ccc(OCC(F)(F)F)s1 [Example 41, (R)—N—((R)-1-(5-(2,2,2-trifluoroethoxy)thiophen-2-yl)ethyl)-1-(5-(trifluoromethyl)pyridin-2-yl)pyrrolidine-3-carboxamide]	5.00 to 6.00		
O=C(N[C@@H](c1ccc(C(F)(F)F)s1)C1CCCCC1)[C@H]1C[C@@H]1c1nc2ccccc2[nH]1 [Example 59, (1S,2S)-2-(1H-benzo[d]imidazol-2-yl)-N—((R)-cyclohexyl(5-(trifluoromethyl)thiophen-2-yl)methyl)cyclopropane-1-carboxamide]	6.00 to 7.00		
C[C@@H](NC(=O)C1CC1c1nc2ccccc2[nH]1)c1ccc(C(N)=O)s1 (single isomer, unassigned) [Example 30]	< 5.00		
C[C@@H](NC(=O)[C@H]1C[C@@H]1c1nc2cc(F)ccc2[nH]1)c1ccc(OCC(F)(F)F)s1 [Example 118, (1S,2S)-2-(5-fluoro-1H-benzo[d]imidazol-2-yl)-N—((R)-1-(5-(2,2,2-trifluoroethoxy)thiophen-2-yl)ethyl)cyclopropane-1-carboxamide]	≥ 7.00		
